Test system: RAW 264.7 cells
Assay: Hydride Meisenheimer complex (HMC) formation propensity assay, whole cell
Format: in vitro ADME, murine
Details: whole cell in vitro assay, relative to BTZ-043 (1)
Description: As the main goal of our work, we focused on the impact of C-6 substituents on the propensity to form HMC in our recently developed whole cell in vitro assay. Following our standardized protocol, all measurements were normalized relative to BTZ-043 (1). Obtained HMC formation propensities (Table S5) were transformed into their negative decadic logarithm (pHMC) to ease data visualization and subsequent processing during chemoinformatics investigations (Fig. 5). […] In the case of esters, a plausible pattern according to the substituent size was observed. […] Similarly, dimethyl amide 7c and nitrile 9 produced a 14- and 12-fold larger ratio of HMC compared to 1, respectively. Esters 6a–e and oxazoline 7e were also more prone to HMC formation than 1, albeit to a considerably lesser extent (2.5–6-fold).
3. Hydride Meisenheimer complex formation propensity assay
The assay was performed as described previously. 6
RAW 264.7 cell cultivation […]
Samples were analyzed with a Thermo Vanquish Horizon UHPLC system (Thermo Fisher Scientific, Bremen, Germany) coupled to a Thermo Scientific QExactive Orbitrap mass spectrometer (Thermo Fisher Scientific, Bremen, Germany) by using a UPLC column (ACQUITY HSS T3, Waters, 1.8 µm particle size, 2.1 × 50 mm). […]

| Structure (SMILES) | HMC formation (in words) |
| --- | --- |
| C[C@H]1COC2(CCN(c3nc(=O)c4cc(C(=O)O)cc([N+](=O)[O-])c4s3)CC2)O1 [Compound 8] | Traces |
| C[C@H]1COC2(CCN(c3nc(=O)c4cccc([N+](=O)[O-])c4s3)CC2)O1 [Compound 23] | no detectable HMC formation |

Source: paper PMC11227536, “Modulation of the Meisenheimer complex metabolism of nitro-benzothiazinones by targeted C-6 substitution” (Communications Chemistry, 2024)
